The assay addresses T1, GABAB receptor (GABABR1a/GABABR2 heterodimer) (Homo sapiens, UniProt O75899+Q9UBS5).
T1 construct: expressed in transfected cells
As to the kind of experiment: [35S]-GTPγS binding assay, potency of positive allosteric modulator on GABA EC50. The format is biochemical. Conditions: potency of the modulator: concentration required to reduce GABA's EC50 by 50%. An excerpt: GABABR1a and GABABR2 were cloned from human brain cDNA and subcloned into pCI-Neo (Promega) and pALTER-1 (Promega), respectively. A GABABR1a-Gαqi5 fusion protein expression vector was constructed using the pCI-Neo-GABABR1a cDNA plasmid and pLEC1-Gαqi5 (Molecular Devices, CA). In order to make the Gαqi5 pertussis toxin insensitive, Cys356 was mutated to Gly using standard PCR methodology with the primers 5′-[…]-3 (forward) and 5′-GCGGCCG […]-3′ (reverse). The Gαqi5mut cDNA was ligated into the BamnHI and NotI sites of pcDNA3.0 (Invitrogen). The GABABR1a coding sequence was amplified by PCR from pCI-Neo-GABABR1a using the primers, 5′-[…]-3′ (forward) and 5′-[…]-3′ (reverse) and subdloned into the BamHI site of pcDNA3.0-Gαqi5mut.
For generation of stable cell lines, CHO-K1 cells were grown in Nut mix F-12 (Ham) media supplemented with 10% FBS, 100 U/ml Penicillin and 100 μg/nl Streptomycin at 37° C. in a humidified CO2-incubator. […]
[^35S]-GTPγS binding assays were performed at 30° C. for 45 min in membrane buffer (100 mM NaCl, […], 1 mM EDTA, 50 mM HEPES, pH 7.4) containing 0.025 μg/μl of membrane protein (prepared from the cell lines described above) with 0.01% bovine serum albumin (fatty acid free), 10 μM GDP, 100 μM DTT and 0.53 nM [^35S]-GTPγS (Amersham-Pharmacia Biotech) in a final volume of 200 μl. Nonspecific binding was determined in the presence of 20 μM GTPγS. […]
(Binding of GTPγS marks nucleotide exchange on a G protein.)

T1 sequence (Q9UBS5 15-961 limits assumed): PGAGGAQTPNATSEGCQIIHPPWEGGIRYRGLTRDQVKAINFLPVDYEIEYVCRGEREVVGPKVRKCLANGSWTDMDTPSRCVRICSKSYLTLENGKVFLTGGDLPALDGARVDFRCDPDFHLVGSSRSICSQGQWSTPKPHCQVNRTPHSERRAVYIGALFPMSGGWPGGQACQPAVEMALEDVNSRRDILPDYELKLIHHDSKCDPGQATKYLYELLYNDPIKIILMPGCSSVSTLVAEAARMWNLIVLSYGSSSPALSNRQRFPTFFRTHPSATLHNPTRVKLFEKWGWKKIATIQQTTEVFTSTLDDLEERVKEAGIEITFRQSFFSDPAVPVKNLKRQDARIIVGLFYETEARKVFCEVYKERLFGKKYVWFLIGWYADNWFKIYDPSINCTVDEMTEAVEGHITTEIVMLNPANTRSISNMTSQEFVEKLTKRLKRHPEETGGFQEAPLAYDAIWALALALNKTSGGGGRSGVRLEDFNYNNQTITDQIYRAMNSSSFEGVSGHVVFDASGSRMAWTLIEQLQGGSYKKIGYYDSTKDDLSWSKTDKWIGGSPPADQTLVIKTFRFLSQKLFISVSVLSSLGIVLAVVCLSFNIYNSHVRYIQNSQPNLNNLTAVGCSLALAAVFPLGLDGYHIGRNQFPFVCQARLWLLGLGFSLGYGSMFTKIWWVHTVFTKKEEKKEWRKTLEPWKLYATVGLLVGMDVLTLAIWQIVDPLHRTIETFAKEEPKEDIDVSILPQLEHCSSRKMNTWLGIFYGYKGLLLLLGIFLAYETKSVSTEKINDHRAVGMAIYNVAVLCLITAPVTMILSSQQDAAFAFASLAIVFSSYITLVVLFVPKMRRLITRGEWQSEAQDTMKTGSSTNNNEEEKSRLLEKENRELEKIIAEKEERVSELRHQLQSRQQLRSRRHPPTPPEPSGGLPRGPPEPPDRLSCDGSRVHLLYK
T1 sequence (O75899 42-941): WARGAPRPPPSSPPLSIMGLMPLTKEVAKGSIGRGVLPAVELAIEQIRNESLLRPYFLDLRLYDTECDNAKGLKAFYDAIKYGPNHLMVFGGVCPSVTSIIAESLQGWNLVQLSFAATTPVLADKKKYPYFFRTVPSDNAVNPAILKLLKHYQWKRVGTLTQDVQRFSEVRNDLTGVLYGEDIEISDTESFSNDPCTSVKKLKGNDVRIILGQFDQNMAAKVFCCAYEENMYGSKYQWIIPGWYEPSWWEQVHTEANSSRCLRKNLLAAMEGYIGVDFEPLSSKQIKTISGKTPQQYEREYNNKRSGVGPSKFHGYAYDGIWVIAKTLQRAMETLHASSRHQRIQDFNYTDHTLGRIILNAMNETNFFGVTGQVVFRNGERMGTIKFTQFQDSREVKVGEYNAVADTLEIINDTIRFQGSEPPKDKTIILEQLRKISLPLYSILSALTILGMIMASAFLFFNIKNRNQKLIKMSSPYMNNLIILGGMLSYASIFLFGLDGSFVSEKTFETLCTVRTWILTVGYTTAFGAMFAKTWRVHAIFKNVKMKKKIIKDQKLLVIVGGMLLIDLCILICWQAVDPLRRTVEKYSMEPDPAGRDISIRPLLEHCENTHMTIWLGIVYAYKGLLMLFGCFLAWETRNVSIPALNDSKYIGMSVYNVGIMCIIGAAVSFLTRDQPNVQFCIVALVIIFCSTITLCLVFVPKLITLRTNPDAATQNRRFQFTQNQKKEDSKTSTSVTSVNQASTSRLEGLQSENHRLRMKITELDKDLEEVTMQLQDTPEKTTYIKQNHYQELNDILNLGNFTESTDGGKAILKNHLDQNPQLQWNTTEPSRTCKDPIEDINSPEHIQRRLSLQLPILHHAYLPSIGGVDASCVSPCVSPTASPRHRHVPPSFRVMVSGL

The term EC50 denotes the concentration at which the effect is half-maximal. In turn, `CN(C)c1nc(NC(=S)C2COc3ccccc3O2)c(C(=O)OC(C)(C)C)n1-c1ccccc1` (centres unmarked) [Example 6, tert-butyl 4-[(2,3-dihydro-1,4-benzodioxin-2-ylcarbonothioyl)amino]-2-(dimethylamino)-1-phenyl-1H-imidazole-5-carboxylate] returned an EC50 of 2270 nM.
In the case of `CN(C)c1nc(/N=C(/c2ccc(Cl)cc2)N2CCCC2)c(C(=O)OC(C)(C)C)n1-c1ccccc1` [Example 2, tert-butyl 4-{[(1Z)-(4-chlorophenyl)(pyrrolidin-1-yl)methylene]amino}-2-(dimethylamino)-1-phenyl-1H-imidazole-5-carboxylate] it was 2380 nM.
